From PubChem BioAssay (NCI)
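Test compounds were applied to cells in 96-well plates for 48 hours at 5 doses. GI50 is the concentration that inhibits growth by half. TGI: concentration producing complete growth inhibition.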

How the values were obtained:
Test in all cases: NCI tumour cell line growth inhibition, 48 h
HCT-15 colon = system: HCT-15 colon
NCI-H226 lung = system: NCI-H226 lung
COLO 205 colon = system: COLO 205 colon
UACC-257 melanoma = system: UACC-257 melanoma
OVCAR-5 ovarian = system: OVCAR-5 ovarian
HL-60(TB) leukemia = system: HL-60(TB) leukemia
OVCAR-8 ovarian = system: OVCAR-8 ovarian
SK-OV-3 ovarian = system: SK-OV-3 ovarian
HOP-18 NSCLC = system: HOP-18 NSCLC
UO-31 renal = system: UO-31 renal
UACC-62 melanoma = system: UACC-62 melanoma
OVCAR-3 ovarian = system: OVCAR-3 ovarian
DLD-1 colon = system: DLD-1 colon
MALME-3M melanoma = system: MALME-3M melanoma
CCRF-CEM leukemia = system: CCRF-CEM leukemia
HCC-2998 colon = system: HCC-2998 colon
XF 498 CNS = system: XF 498 CNS
SN12C renal = system: SN12C renal
EKVX NSCLC = system: EKVX NSCLC
NCI-H23 lung = system: NCI-H23 lung
M14 melanoma = system: M14 melanoma
SNB-19 CNS = system: SNB-19 CNS
KM12 colon = system: KM12 colon
SW-620 colon = system: SW-620 colon
RPMI-8226 leukemia = system: RPMI-8226 leukemia
HOP-92 NSCLC = system: HOP-92 NSCLC
NCI-H460 lung = system: NCI-H460 lung
RXF 393 renal = system: RXF 393 renal
KM20L2 colon = system: KM20L2 colon
OVCAR-4 ovarian = system: OVCAR-4 ovarian
TK-10 renal = system: TK-10 renal
SNB-75 CNS = system: SNB-75 CNS
HOP-62 NSCLC = system: HOP-62 NSCLC
K-562 leukemia = system: K-562 leukemia
SK-MEL-28 melanoma = system: SK-MEL-28 melanoma
LOX IMVI melanoma = system: LOX IMVI melanoma
SK-MEL-5 melanoma = system: SK-MEL-5 melanoma
SK-MEL-2 melanoma = system: SK-MEL-2 melanoma
MOLT-4 leukemia = system: MOLT-4 leukemia
SF-295 CNS = system: SF-295 CNS
U251 CNS = system: U251 CNS
DMS 114 small cell lung = system: DMS 114 small cell lung
HT29 colon = system: HT29 colon
IGROV1 ovarian = system: IGROV1 ovarian
ACHN renal = system: ACHN renal
A498 renal = system: A498 renal
A549 NSCLC = system: A549 NSCLC
SF-268 CNS = system: SF-268 CNS
HCT-116 colon = system: HCT-116 colon
LXFL 529 NSCLC = system: LXFL 529 NSCLC
NCI-H522 lung = system: NCI-H522 lung
786-0 renal = system: 786-0 renal
CAKI-1 renal = system: CAKI-1 renal
SR leukemia = system: SR leukemia
SF-539 CNS = system: SF-539 CNS

CC(=O)[CH-]C(C)=O.CC(=O)[CH-]C(C)=O.[CH2-]CCCCCCC.[CH2-]CCCCCCC.[Sn+4] showed a GI50 (HCT-15 colon) of 23.2 µM, a TGI (HCT-15 colon) of 56.2 µM and a GI50 (NCI-H226 lung) of 26.2 µM. For the same molecule, the TGI (NCI-H226 lung) was 52.3 µM, the GI50 (COLO 205 colon) was 14.7 µM and the TGI (COLO 205 colon) was 28.8 µM. For the same molecule, the GI50 (UACC-257 melanoma) was 17.8 µM, the TGI (UACC-257 melanoma) was 34.9 µM and the GI50 (OVCAR-5 ovarian) was 15.5 µM. For the same molecule, the TGI (OVCAR-5 ovarian) was 37.7 µM, the GI50 (HL-60(TB) leukemia) was 21.1 µM and the TGI (HL-60(TB) leukemia) was 81.6 µM. It also gave a GI50 (OVCAR-8 ovarian) of 16.8 µM, a TGI (OVCAR-8 ovarian) of 32.1 µM and a GI50 (SK-OV-3 ovarian) of 25.5 µM. The TGI (SK-OV-3 ovarian) was 67.1 µM, the GI50 (HOP-18 NSCLC) was greater than 100 µM and the TGI (HOP-18 NSCLC) was greater than 100 µM. It also gave a GI50 (UO-31 renal) of 17.2 µM, a TGI (UO-31 renal) of 34.8 µM and a GI50 (UACC-62 melanoma) of 15.6 µM. The TGI (UACC-62 melanoma) was 29.4 µM, the GI50 (OVCAR-3 ovarian) was 15.9 µM and the TGI (OVCAR-3 ovarian) was 33.8 µM. For the same molecule, the GI50 (DLD-1 colon) was 18.8 µM, the TGI (DLD-1 colon) was 45.2 µM and the GI50 (MALME-3M melanoma) was 17.6 µM. The TGI (MALME-3M melanoma) was 39.5 µM, the GI50 (CCRF-CEM leukemia) was 27 µM and the TGI (CCRF-CEM leukemia) was 69 µM. It also gave a GI50 (HCC-2998 colon) of 17 µM, a TGI (HCC-2998 colon) of 31.5 µM and a GI50 (XF 498 CNS) of 11.8 µM. For the same molecule, the TGI (XF 498 CNS) was 24.1 µM, the GI50 (SN12C renal) was 22.7 µM and the TGI (SN12C renal) was 59.1 µM. For the same molecule, the GI50 (EKVX NSCLC) was 14.7 µM, the TGI (EKVX NSCLC) was 35.4 µM and the GI50 (NCI-H23 lung) was 18.7 µM. It also gave a TGI (NCI-H23 lung) of 33.6 µM, a GI50 (M14 melanoma) of 18.5 µM and a TGI (M14 melanoma) of 35.5 µM. It also gave a GI50 (SNB-19 CNS) of 17.5 µM, a TGI (SNB-19 CNS) of 35.8 µM and a GI50 (KM12 colon) of 16.7 µM. The TGI (KM12 colon) was 34.4 µM, the GI50 (SW-620 colon) was 16.4 µM and the TGI (SW-620 colon) was 31.7 µM. It also gave a GI50 (RPMI-8226 leukemia) of 18.5 µM, a TGI (RPMI-8226 leukemia) of 40.4 µM and a GI50 (HOP-92 NSCLC) of 18.1 µM. It also gave a TGI (HOP-92 NSCLC) of 40.7 µM, a GI50 (NCI-H460 lung) of 17.3 µM and a TGI (NCI-H460 lung) of 37.8 µM. For the same molecule, the GI50 (RXF 393 renal) was 14.6 µM, the TGI (RXF 393 renal) was 32.9 µM and the GI50 (KM20L2 colon) was 25 µM. It also gave a TGI (KM20L2 colon) of 57.6 µM, a GI50 (OVCAR-4 ovarian) of 22.3 µM and a TGI (OVCAR-4 ovarian) of 78.6 µM. The GI50 (TK-10 renal) was 23.7 µM, the TGI (TK-10 renal) was 45.2 µM and the GI50 (SNB-75 CNS) was 14.7 µM. For the same molecule, the TGI (SNB-75 CNS) was 78.6 µM, the GI50 (HOP-62 NSCLC) was 22.4 µM and the TGI (HOP-62 NSCLC) was 40.9 µM. For the same molecule, the GI50 (K-562 leukemia) was 20.5 µM, the TGI (K-562 leukemia) was 93.5 µM and the GI50 (SK-MEL-28 melanoma) was 14.7 µM. It also gave a TGI (SK-MEL-28 melanoma) of 28.4 µM, a GI50 (LOX IMVI melanoma) of 13.8 µM and a TGI (LOX IMVI melanoma) of 27 µM. For the same molecule, the GI50 (SK-MEL-5 melanoma) was 17.7 µM, the TGI (SK-MEL-5 melanoma) was 32 µM and the GI50 (SK-MEL-2 melanoma) was 14.8 µM. For the same molecule, the TGI (SK-MEL-2 melanoma) was 32 µM, the GI50 (MOLT-4 leukemia) was 37.2 µM and the TGI (MOLT-4 leukemia) was 73 µM. The GI50 (SF-295 CNS) was 15.4 µM, the TGI (SF-295 CNS) was 30.6 µM and the GI50 (U251 CNS) was 15 µM. The TGI (U251 CNS) was 28.3 µM, the GI50 (DMS 114 small cell lung) was 16.7 µM and the TGI (DMS 114 small cell lung) was 31.2 µM. The GI50 (HT29 colon) was 23.5 µM, the TGI (HT29 colon) was 59.6 µM and the GI50 (IGROV1 ovarian) was 20.3 µM. It also gave a TGI (IGROV1 ovarian) of 49.2 µM, a GI50 (ACHN renal) of 28.3 µM and a TGI (ACHN renal) of 70.4 µM. For the same molecule, the GI50 (A498 renal) was 23 µM, the TGI (A498 renal) was 46.7 µM and the GI50 (A549 NSCLC) was 45.6 µM. It also gave a TGI (A549 NSCLC) greater than 100 µM, a GI50 (SF-268 CNS) of 18.9 µM and a TGI (SF-268 CNS) of 57.9 µM. It also gave a GI50 (HCT-116 colon) of 14.8 µM, a TGI (HCT-116 colon) of 29.1 µM and a GI50 (LXFL 529 NSCLC) of 16.2 µM. For the same molecule, the TGI (LXFL 529 NSCLC) was 30.1 µM, the GI50 (NCI-H522 lung) was 20.3 µM and the TGI (NCI-H522 lung) was 46.2 µM. The GI50 (786-0 renal) was 15.8 µM, the TGI (786-0 renal) was 30.1 µM and the GI50 (CAKI-1 renal) was 36.7 µM. For the same molecule, the TGI (CAKI-1 renal) was greater than 100 µM, the GI50 (SR leukemia) was 39.9 µM and the TGI (SR leukemia) was 62.4 µM. For the same molecule, the GI50 (SF-539 CNS) was 22.2 µM and the TGI (SF-539 CNS) was 58.6 µM.
